In US20250064947A1, “CYTOTOXICITY TARGETING CHIMERAS FOR FIBROBLAST ACTIVATION PROTEIN-EXPRESSING CELLS” (Glaxosmithkline Intellectual Property Development Limited, priority 2022, published 2025):

target: T1, FAP (Homo sapiens, UniProt Q12884); assay: Antibody dependent cellular cytotoxicity (ADCC) reporter assay; type: cell-based; parameters: key to ADCC Reporter Assay pEC50: Inactive = pEC50 < 5; settings: WI-38 target cells; Jurkat FcγRIIIa NFAT-luciferase reporter cells; with anti-cotinine antibody (SEQ ID NO: 11/12); 12-18 hours; average if more than one run
T1 construct: Target cells: WI-38 cells (typically 1000-20,000 cells per well); endogenous in cells; host or cells: WI-38 cells
T1 sequence (Q12884 1-760): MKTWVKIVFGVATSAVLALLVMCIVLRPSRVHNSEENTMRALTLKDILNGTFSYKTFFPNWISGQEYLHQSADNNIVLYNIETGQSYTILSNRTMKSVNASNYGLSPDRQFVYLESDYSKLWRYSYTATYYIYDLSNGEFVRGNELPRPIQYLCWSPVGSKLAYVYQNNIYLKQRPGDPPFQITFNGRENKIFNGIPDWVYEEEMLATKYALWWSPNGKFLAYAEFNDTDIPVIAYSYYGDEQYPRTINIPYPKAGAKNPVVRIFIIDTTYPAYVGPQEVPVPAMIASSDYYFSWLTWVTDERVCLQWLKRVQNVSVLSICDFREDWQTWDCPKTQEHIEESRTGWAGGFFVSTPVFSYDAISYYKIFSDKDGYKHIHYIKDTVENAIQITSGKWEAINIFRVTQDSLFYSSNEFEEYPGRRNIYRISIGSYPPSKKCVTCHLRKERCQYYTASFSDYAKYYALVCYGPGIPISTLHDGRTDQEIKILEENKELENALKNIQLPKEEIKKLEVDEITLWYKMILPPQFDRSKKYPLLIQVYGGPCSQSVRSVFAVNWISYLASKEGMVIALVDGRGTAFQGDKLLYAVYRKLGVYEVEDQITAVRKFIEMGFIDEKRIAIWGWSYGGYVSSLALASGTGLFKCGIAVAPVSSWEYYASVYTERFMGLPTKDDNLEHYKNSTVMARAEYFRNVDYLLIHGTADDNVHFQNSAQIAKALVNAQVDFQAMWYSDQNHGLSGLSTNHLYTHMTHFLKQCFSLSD
Description: An antibody dependent cellular cytotoxicity (ADCC) reporter assay was conducted using the following four assay components: (i) ARM compound of Formula (I) targeting FAP (concentrations ranging from […]); (ii) anti-cotinine antibody having a heavy chain sequence of SEQ ID NO: 11 and a light chain sequence of SEQ ID NO: 12 (rabbit variable region with human IgG1 Fc domain containing DE mutation (S239D/I332E)) (concentrations ranging from 0.01 μg/mL 200 μg/mL); (iii) Target cells: WI-38 cells (typically 1000-20,000 cells per well); and (iv) Reporter cells—Jurkat cells engineered to express FcγRIIIa with a reporter gene luciferase under the control of the NFAT promoter (typically 3000-75,000 cells per well). Reagents were combined in final volume of 20 μL in 384—well tissue culture treated plate. All four assay components were incubated together for about 12-18 hours. Thereafter, BioGlo Detection reagent (Promega) was added to the wells to lyse the cells and provide a substrate for the luciferase reporter protein.
Luminescence signal was measured on a microplate reader capable of measuring luminescence and signal:background was calculated by dividing the signal of a test well by the signal obtained when no compound of formula (I) was included in the assay. EC50 calculations were done using Graphpad Prism Software, specifically a nonlinear regression curve fit (Y=Bottom+(Top−Bottom)/(1+10^((Log EC50−X)*HillSlope))).
ARMs compounds of Formula (I) were tested for ADCC activity in the above assay in one or more experimental runs and the results are shown in Table 3 below. Potency of the compounds of Formula (I) is reported as a pEC50 values. The pEC50 value is the negative log of the EC50 value, wherein the EC50 value is half maximal effective concentration measured in molar (M). For compounds tested in more than one experimental run, the pEC50 value is reported as an average.

Structure (SMILES) | ADCC Reporter Assay pEC50
CN(CCNC(=O)[C@H]1CC[C@H](NC(=O)CCCO[C@H]2CC[C@H](OCCNC(=O)[C@H]3CC(=O)N(C)[C@@H]3c3cccnc3)CC2)CC1)c1ccc2nccc(C(=O)NCC(=O)N3CC(F)(F)C[C@H]3C#N)c2c1 [Example 4, N-(2-((S)-2-cyano-4,4-difluoropyrrolidin-1-yl)-2-oxoethyl)-6-(methyl(2-((1R,4r)-4-(4-(((1S,4R)-4-(2-((2S,3S)-1-methyl-5-oxo-2-(pyridin-3-yl)pyrrolidine-3-carboxamido)ethoxy)cyclohexyl)oxy)butanamido)cyclohexane-1-carboxamido)ethyl)amino)quinoline-4-carboxamide] | Inactive

same assay, conditions: WI-38 target cells; Jurkat FcγRIIIa NFAT-luciferase reporter cells; with anti-cotinine antibody (SEQ ID NO: 11/12); 12-18 hours; average if more than one run; read-out: ADCC Reporter Assay pEC50 (converted)

Structure (SMILES) | EC50
CN1C(=O)C[C@H](C(=O)NCCOCCOCCOCCOCCOCCOCCOCCOCCOCCOCCOCCOCCOCCOCCOCCNC(=O)COc2ccc3c(C(=O)NCC(=O)N4CC(F)(F)C[C@H]4C#N)ccnc3c2)[C@H]1c1cccnc1 [Example 11, N-(2-((S)-2-cyano-4,4-difluoropyrrolidin-1-yl)-2-oxoethyl)-7-((1-((2S,3S)-1-methyl-5-oxo-2-(pyridin-3-yl)pyrrolidin-3-yl)-1,51-dioxo-5,8,11,14,17,20,23,26,29,32,35,38,41,44,47-pentadecaoxa-2,50-diazadopentacontan-52-yl)oxy)quinoline-4-carboxamide] | > 1000 nM
CN(CCNC(=O)CCOCCOCCOCCOCCOCCOCCOCCOCCOCCOCCOCCOCCOCCOCCOCCOCCOCCOCCOCCOCCNC(=O)[C@H]1CC(=O)N(C)[C@@H]1c1cccnc1)c1ccc2nccc(C(=O)NCC(=O)N3CC(F)(F)C[C@H]3C#N)c2c1 [Example 6, N-(2-((S)-2-cyano-4,4-difluoropyrrolidin-1-yl)-2-oxoethyl)-6-(methyl(1-((2S,3S)-1-methyl-5-oxo-2-(pyridin-3-yl)pyrrolidin-3-yl)-1,65-dioxo-5,8,11,14,17,20,23,26,29,32,35,38,41,44,47,50,53,56,59,62-icosaoxa-2,66-diazaoctahexacontan-68-yl)amino)quinoline-4-carboxamide] | 12.6 nM
CN(CCNC(=O)[C@H]1CC[C@H](NC(=O)CCCO[C@H]2CC[C@H](OCCNC(=O)[C@H]3CC[C@H](NC(=O)CCCO[C@H]4CC[C@H](OCCNC(=O)[C@H]5CC(=O)N(C)[C@@H]5c5cccnc5)CC4)CC3)CC2)CC1)c1ccc2nccc(C(=O)NCC(=O)N3CC(F)(F)C[C@@H]3C#N)c2c1 (racemic) [Example 1, N-(2-((S)-2-Cyano-4,4-difluoropyrrolidin-1-yl)-2-oxoethyl)-6-(methyl(2-((1R,4R)-4-(4-(((1R,4R)-4-(2-((1R,4R)-4-(4-(((1 S,4R)-4-(2-((2S,3S)-1-methyl-5-oxo-2-(pyridin-3-yl)pyrrolidine-3-carboxamido)ethoxy)cyclohexyl)oxy)butanamido)cyclohexane-1-carboxamido)ethoxy)cyclohexyl)oxy)butanamido)cyclohexane-1-carboxamido)ethyl)amino) quinoline-4-carboxamide] | 3.98 nM
CN1C(=O)C[C@H](C(=O)NCCOCCOCCOCCOCCOCCOCCOCCOCCOCCOCCOCCOCCOCCOCCOCCNC(=O)COc2ccc3c(C(=O)NCC(=O)N4CCC[C@H]4C#N)ccnc3c2)[C@H]1c1cccnc1 [Example 10, N-(2-((S)-2-cyanopyrrolidin-1-yl)-2-oxoethyl)-7-((1-((2S,3S)-1-methyl-5-oxo-2-(pyridin-3-yl)pyrrolidin-3-yl)-1,51-dioxo-5,8,11,14,17,20,23,26,29,32,35,38,41,44,47-pentadecaoxa-2,50-diazadopentacontan-52-yl)oxy)quinoline-4-carboxamide] | > 1000 nM
CN(CCNC(=O)CCOCCOCCOCCOCCOCCOCCOCCOCCOCCOCCOCCOCCOCCOCCOCCOCCOCCOCCOCCOCCOCCOCCOCCOCCNC(=O)[C@H]1CC(=O)N(C)[C@@H]1c1cccnc1)c1ccc2nccc(C(=O)NCC(=O)N3CC(F)(F)C[C@H]3C#N)c2c1 [Example 7, N-(2-((S)-2-Cyano-4,4-difluoropyrrolidin-1-yl)-2-oxoethyl)-6-(methyl(1-((2S,3S)-1-methyl-5-oxo-2-(pyridin-3-yl)pyrrolidin-3-yl)-1,77-dioxo-5,8,11,14,17,20,23,26,29,32,35,38,41,44,47,50,53,56,59,62,65,68,71,74-tetracosaoxa-2,78-diazaoctacontan-80-yl)amino)quinoline-4-carboxamide] | 5.01 nM
CN1C(=O)C[C@H](C(=O)NCCOCCOCCOCCOCCOCCOCCOCCOCCOCCOCCOCCOCCOCCOCCOCCOCCOCCOCCOCCOCCOCCOCCOCCNC(=O)COc2ccc3c(C(=O)NCC(=O)N4CC(F)(F)C[C@H]4C#N)ccnc3c2)[C@H]1c1cccnc1 [Example 13, N-(2-((S)-2-cyano-4,4-difluoropyrrolidin-1-yl)-2-oxoethyl)-7-((1-((2S,3S)-1-methyl-5-oxo-2-(pyridin-3-yl)pyrrolidin-3-yl)-1,75-dioxo-5,8,11,14,17,20,23,26,29,32,35,38,41,44,47,50,53,56,59,62,65,68,71-tricosaoxa-2,74-diazahexaheptacontan-76-yl)oxy)quinoline-4-carboxamide] | 1 nM
